Results taken from patent publication US11542235B2, “Herbicidal 3-azaspiro[5.5] undecane-8, 10-dione compounds” (SYNGENTA PARTICIPATIONS AG, priority 2018, dated 2023).

Experiments:
Assay type in all cases: in vivo
Avena fatua (AVEFA) = experiment: Glasshouse herbicidal test, pre- and post-emergence, Avena fatua; conditions: 250 g/h, evaluated after 13 days, five point scale; for percentage damage caused to the plant, AVEFA POST: post-emergence; for percentage damage caused to the plant, AVEFA PRE: pre-emergence
Description: (§1) Seeds of a variety of test species are sown in standard soil in pots (Lolium perenne (LOLPE), Setaria faberi (SETFA), Alopecurus myosuroides (ALOMY), Echinochloa crus-galli (ECHCG), Avena fatua (AVEFA)). After cultivation for one day (pre-emergence) or after 8 days cultivation (post-emergence) under controlled conditions in a glasshouse (at 24/16° C., day/night; 14 hours light; 65% humidity), the plants are sprayed with an aqueous spray solution derived from the formulation of the technical active ingredient in acetone/water (50:50) solution containing 0.5% Tween 20 (polyoxyethelyene sorbitan monolaurate, CAS RN 9005-64-5). Compounds are applied at […]. The test plants are then grown in a glasshouse under controlled conditions in a glasshouse (at 24/16° C., day/night; 14 hours light; 65% humidity) and watered twice daily. After 13 days for pre and post-emergence, the test is evaluated for the percentage damage caused to the plant. The biological activities are shown in the following table on a five point scale (5=80-100%; 4=60-79%; 3=40-59%; 2=20-39%; 1=0-19%).

Setaria faberi (SETFA) = experiment: Glasshouse herbicidal test, pre- and post-emergence, Setaria faberi; conditions: 250 g/h, evaluated after 13 days, five point scale; for percentage damage caused to the plant, SETFA POST: post-emergence; for percentage damage caused to the plant, SETFA PRE: pre-emergence
Description: as §1

[1] = test system: Echinochloa crus-galli (ECHCG); experiment: Glasshouse herbicidal test, pre- and post-emergence, Echinochloa crus-galli; conditions: 250 g/h, evaluated after 13 days, five point scale; for percentage damage caused to the plant, ECHCG POST: post-emergence; for percentage damage caused to the plant, ECHCG PRE: pre-emergence
Description: as §1

Lolium perenne (LOLPE) = experiment: Glasshouse herbicidal test, pre- and post-emergence, Lolium perenne; conditions: 250 g/h, evaluated after 13 days, five point scale; for percentage damage caused to the plant, LOLPE POST: post-emergence; for percentage damage caused to the plant, LOLPE PRE: pre-emergence
Description: as §1

[2] = test system: Alopecurus myosuroides (ALOMY); experiment: Glasshouse herbicidal test, pre- and post-emergence, Alopecurus myosuroides; conditions: 250 g/h, evaluated after 13 days, five point scale; for percentage damage caused to the plant, ALOMY POST: post-emergence; for percentage damage caused to the plant, ALOMY PRE: pre-emergence
Description: as §1

CC#Cc1cc(C)c(C2C(=O)CC3(CCN(C(=O)C(C)(C)C)CC3)CC2=O)c(OC)c1 [Compound A20]
5 (5=80-100%): percentage damage caused to the plant, AVEFA POST (Avena fatua (AVEFA)) | percentage damage caused to the plant, AVEFA PRE (Avena fatua (AVEFA)) | percentage damage caused to the plant, SETFA POST (Setaria faberi (SETFA)) | percentage damage caused to the plant, SETFA PRE (Setaria faberi (SETFA)) | percentage damage caused to the plant, ECHCG POST [1] | percentage damage caused to the plant, ECHCG PRE [1] | percentage damage caused to the plant, LOLPE POST (Lolium perenne (LOLPE)) | percentage damage caused to the plant, LOLPE PRE (Lolium perenne (LOLPE)) | percentage damage caused to the plant, ALOMY POST [2] | percentage damage caused to the plant, ALOMY PRE [2]

CC#Cc1cc(C)c(C2C(=O)CC3(CCN(C(=O)C(C)F)CC3)CC2=O)c(C)c1 (stereo not drawn) [Compound A21]
5 (5=80-100%): percentage damage caused to the plant, AVEFA POST (Avena fatua (AVEFA)) | percentage damage caused to the plant, AVEFA PRE (Avena fatua (AVEFA)) | percentage damage caused to the plant, SETFA POST (Setaria faberi (SETFA)) | percentage damage caused to the plant, SETFA PRE (Setaria faberi (SETFA)) | percentage damage caused to the plant, ECHCG POST [1] | percentage damage caused to the plant, ECHCG PRE [1] | percentage damage caused to the plant, LOLPE POST (Lolium perenne (LOLPE)) | percentage damage caused to the plant, LOLPE PRE (Lolium perenne (LOLPE)) | percentage damage caused to the plant, ALOMY POST [2] | percentage damage caused to the plant, ALOMY PRE [2]

CC#Cc1cc(C)c(C2C(=O)CC3(CCN(C(=O)C(C)(F)F)CC3)CC2=O)c(C)c1 [Compound A22]
5 (5=80-100%): percentage damage caused to the plant, AVEFA POST (Avena fatua (AVEFA)) | percentage damage caused to the plant, AVEFA PRE (Avena fatua (AVEFA)) | percentage damage caused to the plant, SETFA POST (Setaria faberi (SETFA)) | percentage damage caused to the plant, SETFA PRE (Setaria faberi (SETFA)) | percentage damage caused to the plant, ECHCG POST [1] | percentage damage caused to the plant, ECHCG PRE [1] | percentage damage caused to the plant, LOLPE POST (Lolium perenne (LOLPE)) | percentage damage caused to the plant, LOLPE PRE (Lolium perenne (LOLPE)) | percentage damage caused to the plant, ALOMY POST [2] | percentage damage caused to the plant, ALOMY PRE [2]

CC#Cc1cc(C)c(C2C(=O)CC3(CCN(C(=O)C(C)(C)F)CC3)CC2=O)c(C)c1 [Compound A23]
5 (5=80-100%): percentage damage caused to the plant, AVEFA POST (Avena fatua (AVEFA)) | percentage damage caused to the plant, AVEFA PRE (Avena fatua (AVEFA)) | percentage damage caused to the plant, SETFA POST (Setaria faberi (SETFA)) | percentage damage caused to the plant, SETFA PRE (Setaria faberi (SETFA)) | percentage damage caused to the plant, ECHCG POST [1] | percentage damage caused to the plant, ECHCG PRE [1] | percentage damage caused to the plant, LOLPE POST (Lolium perenne (LOLPE)) | percentage damage caused to the plant, LOLPE PRE (Lolium perenne (LOLPE)) | percentage damage caused to the plant, ALOMY POST [2] | percentage damage caused to the plant, ALOMY PRE [2]

CC#Cc1cc(C)c(C2C(=O)CC3(CCN(C(=O)C(C)C(F)(F)F)CC3)CC2=O)c(C)c1 (stereo not drawn) [Compound A24]
5 (5=80-100%): percentage damage caused to the plant, AVEFA POST (Avena fatua (AVEFA)) | percentage damage caused to the plant, AVEFA PRE (Avena fatua (AVEFA)) | percentage damage caused to the plant, SETFA POST (Setaria faberi (SETFA)) | percentage damage caused to the plant, SETFA PRE (Setaria faberi (SETFA)) | percentage damage caused to the plant, ECHCG POST [1] | percentage damage caused to the plant, ECHCG PRE [1] | percentage damage caused to the plant, LOLPE POST (Lolium perenne (LOLPE)) | percentage damage caused to the plant, LOLPE PRE (Lolium perenne (LOLPE)) | percentage damage caused to the plant, ALOMY POST [2] | percentage damage caused to the plant, ALOMY PRE [2]

CC#Cc1cc(C)c(C2C(=O)CC3(CCN(C(=O)CC(F)(F)F)CC3)CC2=O)c(C)c1 [Compound A25]
5 (5=80-100%): percentage damage caused to the plant, AVEFA POST (Avena fatua (AVEFA)) | percentage damage caused to the plant, AVEFA PRE (Avena fatua (AVEFA)) | percentage damage caused to the plant, SETFA POST (Setaria faberi (SETFA)) | percentage damage caused to the plant, SETFA PRE (Setaria faberi (SETFA)) | percentage damage caused to the plant, ECHCG POST [1] | percentage damage caused to the plant, ECHCG PRE [1] | percentage damage caused to the plant, LOLPE POST (Lolium perenne (LOLPE)) | percentage damage caused to the plant, LOLPE PRE (Lolium perenne (LOLPE)) | percentage damage caused to the plant, ALOMY POST [2] | percentage damage caused to the plant, ALOMY PRE [2]

CC#Cc1cc(C)c(C2C(=O)CC3(CCN(C(=O)C(F)(F)C(F)(F)F)CC3)CC2=O)c(C)c1 [Compound A26]
5 (5=80-100%): percentage damage caused to the plant, AVEFA POST (Avena fatua (AVEFA)) | percentage damage caused to the plant, AVEFA PRE (Avena fatua (AVEFA)) | percentage damage caused to the plant, SETFA POST (Setaria faberi (SETFA)) | percentage damage caused to the plant, SETFA PRE (Setaria faberi (SETFA)) | percentage damage caused to the plant, ECHCG POST [1] | percentage damage caused to the plant, ECHCG PRE [1] | percentage damage caused to the plant, LOLPE POST (Lolium perenne (LOLPE)) | percentage damage caused to the plant, LOLPE PRE (Lolium perenne (LOLPE)) | percentage damage caused to the plant, ALOMY POST [2] | percentage damage caused to the plant, ALOMY PRE [2]

CC#Cc1cc(C)c(C2C(=O)CC3(CCN(C(=O)C(C)(Cl)Cl)CC3)CC2=O)c(C)c1 [Compound A27]
5 (5=80-100%): percentage damage caused to the plant, AVEFA POST (Avena fatua (AVEFA)) | percentage damage caused to the plant, AVEFA PRE (Avena fatua (AVEFA)) | percentage damage caused to the plant, SETFA POST (Setaria faberi (SETFA)) | percentage damage caused to the plant, SETFA PRE (Setaria faberi (SETFA)) | percentage damage caused to the plant, ECHCG POST [1] | percentage damage caused to the plant, ECHCG PRE [1] | percentage damage caused to the plant, LOLPE POST (Lolium perenne (LOLPE)) | percentage damage caused to the plant, LOLPE PRE (Lolium perenne (LOLPE)) | percentage damage caused to the plant, ALOMY POST [2] | percentage damage caused to the plant, ALOMY PRE [2]

CC#Cc1cc(C)c(C2C(=O)CC3(CCN(C(=O)C(Cl)Cl)CC3)CC2=O)c(C)c1 [Compound A28]
5 (5=80-100%): percentage damage caused to the plant, AVEFA POST (Avena fatua (AVEFA)) | percentage damage caused to the plant, AVEFA PRE (Avena fatua (AVEFA)) | percentage damage caused to the plant, SETFA POST (Setaria faberi (SETFA)) | percentage damage caused to the plant, SETFA PRE (Setaria faberi (SETFA)) | percentage damage caused to the plant, ECHCG POST [1] | percentage damage caused to the plant, ECHCG PRE [1] | percentage damage caused to the plant, LOLPE POST (Lolium perenne (LOLPE)) | percentage damage caused to the plant, LOLPE PRE (Lolium perenne (LOLPE)) | percentage damage caused to the plant, ALOMY POST [2] | percentage damage caused to the plant, ALOMY PRE [2]
